# Laboratory results reported in article PMC9569971, “New Oxazolo[5,4-d]pyrimidines as Potential Anticancer Agents: Their Design, Synthesis, and In Vitro Biological Activity Research” (International Journal of Molecular Sciences, 2022).
# Entries after “also recorded” stand apart in the source; their conditions may differ. Where two headings read alike, the source gives them in different places.
# Legend:
# LoVo = conditions: cited from earlier work
# HT29 [1] = conditions: cited from earlier work
# A549 = conditions: cited from earlier work
# MCF7 = conditions: cited from earlier work
# [2] = test system: primary colon adenocarcinoma (HT29); test: MTT viability assay, HT29; assay type: cell-based, human; conditions: for CC50 ± SD: HT29, MTT; for CC50 ± SD / CC50: tested 1–500 µM; for SI (selectivity index): CC50 NHDF / CC50 HT29; for CC50: Homo sapiens, HT-29, HT29, MTT
# Method: (§1) When the confluence was greater than 70%, adherent cell lines were detached from the bottle surface with a TrypLE solution and then used in assays or reduced. The cells were collected into centrifuge tubes and centrifuged at 1000× g for 5 min at room temperature. The supernatant was removed to dry. The cell pellets were then resuspended in an appropriate medium. The cells were counted using a Bürker chamber and resuspended in 96-well plates to a cell density of 10,000 cells per well for MTT assay. For the rhodamine accumulation test and the detection of apoptosis assay, cells were seeded at a density of 30,000 per well. In the migration assay, cells were seeded at a density of 20,000 per well, and monolayer formation was awaited.
# (§2) In this study, normal human dermal fibroblasts (NHDFs), breast cancer cells (MCF7), human lung adenocarcinoma cells (A549), murine fibroblasts (L929), colon adenocarcinoma cells (HT29), and colorectal adenocarcinoma cells (LoVo) were used. All cell lines were cultured in the recommended media. […] The human lung adenocarcinoma cell line A549 and breast cancer cell line MCF-7 were obtained from the ECACC. These cell lines were cultured in Eagle’s minimal essential medium (MEM). Murine fibroblast L929 (Sigma-Aldrich, Merck Group, Headquarters, Darmstadt, Germany; the European Collection of Authenticated Cell Cultures—ECACC) cells were grown in DMEM. […] All media were supplemented with 10% FBS and 100 µg/mL of penicillin–streptomycin.
# (§3) All compounds were dissolved in DMSO and the reference drugs were dissolved in physiological saline to concentrations of 10 mM. Concentrations from 1 to 500 μM in the media recommended for the cell lines were prepared for the tests.
# (§4) All of the synthesized derivatives were evaluated via the MTT assay. All cell lines were seeded into 96-well plates at a density of 10,000 cells per well. To allow the cells to adhere to the surface of the plates, they were incubated overnight before the application of the test compounds. […] The tests were performed for concentrations of 1, 5, 10, 25, 50, 100, 250, and 500 μM. The solutions of the test compounds were removed from the culture on the 96-well plates. […] The supernatant was then removed. The violet crystal was dissolved in isopropanol for 30 min by shaking. Absorbance was measured at 570 nm.
# (§5) Biological assays were performed in three independent replicates, and each replicate used four samples. Three repetitions were made for the ELISA determinations. For the assessment of cytotoxicity, mathematical models were developed using the GraphPad PRISM software, based on which CC50 was determined. The values of CC50 were estimated based on nonlinear regression using the dependence of the biological effect on the molar concentrations of the compounds (four-parameter logistic model with Hill slope).
# [3] = test system: breast adenocarcinoma (MCF7); test: MTT viability assay, MCF7; assay type: cell-based, human; conditions: for SI (selectivity index): CC50 NHDF / CC50 MCF7; for CC50: Homo sapiens
# Method: as §1, §2, §3, §4, §5
# [4] = MTT viability assay, L929; assay type: cell-based, murine; conditions: mouse, L929 fibroblasts, tested 1–500 µM
# Method: as §1, §2, §3, §4, §5
# [5] = test system: normal human dermal fibroblasts (NHDF); test: MTT viability assay, NHDF; assay type: cell-based; conditions: tested 1–500 µM
# Method: as §1, §2, §3, §4, §5
# [6] = test system: lung adenocarcinoma (A549); test: MTT viability assay, A549; assay type: cell-based, human
# Method: as §1, §2, §3, §4, §5
# [7] = test system: metastatic colon adenocarcinoma (LoVo); test: MTT viability assay, LoVo; assay type: cell-based, human
# Method: as §1, §2, §3, §4, §5
# [8] = test system: murine fibroblasts (L929); test: MTT viability assay, L929; assay type: cell-based; conditions: tested 1–500 µM
# Method: as §1, §2, §3, §4, §5
# [9] = MTT viability assay, NHDF; assay type: cell-based, human; conditions: human, normal human dermal fibroblasts (NHDF), tested 1–500 µM
# Method: as §1, §2, §3, §4, §5
# HT29 cells [10] = test: Migration (scratch) assay; assay type: cell-based, human; conditions: control T 155558.2, control T0 544366.45
# Method: The scratch test was performed to verify that the tested compound 3g could inhibit the formation of metastases by the HT29 cell line. The seeded HT29 cells were incubated until they formed a monolayer over the entire surface of the well. Then, a scratch test was performed by making a scratch in the monolayer and measuring its width—that is, To, amounting to 544,366.45 μm^2. Freshly prepared compounds were added to the HT29 cells at concentrations of 10, 25, 50, and 100 μM. Breeding plates were incubated for 24 h. The next day, scratch width was measured again using the ImageJ open-source platform. […] The lowest cellular overgrowth of HT29 culture occurred at the concentration of 100 μM for the compound. Compound 3g inhibited the migration of HT29 cells more strongly than the reference drugs, showing that it has the potential to inhibit metastasis. The width of the scratch after 24 h when no compound was applied to the cells was used as a control (T = 155,558.2 μm^2).
# as §1, with “All cell lines were grown in 5% CO2 at 95% humidity and 37 °C, with both morphology and confluence assessed twice per week. When” for “When”
# After seeding, HT29 cells were incubated until they formed a monolayer over the entire surface of the well. A scratch was made on the surface overgrown with cells, and then photomicrographs of the scratch were taken using the EVOS FL microscope. The freshly prepared compound 3g and the reference drugs were added at concentrations of 10, 25, 50, and 100 µM. Then, they were incubated for 24 h, and micrographs were performed at that time using the EVOS FL microscope. The scratch width was measured using the ImageJ open-source platform. The measurement of scratch width was also performed after 24 h without adding compounds.
# [11] = test system: HT29 primary colon adenocarcinoma cells; test: Detection of apoptosis (Annexin V FITC / propidium iodide); assay type: cell-based, human; design: unit not given here; conditions: 24 h
# Method: as §1, with “All cell lines were grown in 5% CO2 at 95% humidity and 37 °C, with both morphology and confluence assessed twice per week. When” for “When”
# HT29 primary colon adenocarcinoma cells were grown in 96-well plates for 24 h. The 5 selected derivatives were added at concentrations of 1, 2, 5, and 10 µM, and then incubated for 24 h. The mixture of Annexin V conjugated with fluorescein and propidium iodide in PBS with Mg^2+ and Ca^2+ ions (Thermo Fisher Scientific, Waltham, MA, USA) was then applied. The incubation lasted 20 min at 37 °C. Pictures were taken using a fluorescence microscope. Thirteen images were taken from each well using an EVOS FL fluorescence microscope, with three replications for each compound. The open ImageJ space was used to analyze the number of cells. The Thermo Fisher Dead Cell Apoptosis Kit with Annexin V FITC and Propidium Iodide (PI) detects phosphatidylserine extrusion in apoptotic cells using Annexin V conjugated with a green fluorescent FITC dye and dead cells stained by PI with red fluorescence.
# HT29 [12] = test system: HT29; design: method as in PMID 32759841; conditions: estimated based on data taken from reference; cited from earlier work
# HT29 cells [13] = test system: HT29 cells; design: method as in PMID 27002410; conditions: cited from earlier work
smiles,measurement,setting,value
CNC(=O)c1cc(Oc2ccc(NC(=O)Nc3ccc(Cl)c(C(F)(F)F)c3)c(F)c2)ccn1 [Regorafenib],IC50,LoVo,2 µM
same,IC50,HT29 [1]; ref 66,2.75 ± 0.18 µM
CCN(CC)CCNC(=O)c1c(C)[nH]c(/C=C2\C(=O)Nc3ccc(F)cc32)c1C [Sunitinib],IC50,LoVo,4.18 ± 0.27 µM
same,IC50,"A549; ref 78, read-out: IC50 (converted)",6.98 µM
same,IC50,HT29 [1]; ref 78,4.89 µM
same,IC50,HT29 [1]; ref 79,2.25 µM
same,IC50,MCF7,7.3 µM
COc1cc2nccc(Oc3ccc(NC(=O)C4(C(=O)Nc5ccc(F)cc5)CC4)cc3)c2cc1OC [Cabozantinib],IC50,"A549; ref 67, read-out: IC50 (converted)",9.52 ± 0.91 µM
same,IC50,"A549; ref 68, read-out: IC50 (converted)",15.2 µM
same,IC50,HT29 [1]; ref 67,11.5 ± 1.1 µM
same,IC50,MCF7,14.3 ± 0.87 µM
Cc1ccc(Nc2nccc(N(C)c3ccc4c(C)n(C)nc4c3)n2)cc1S(N)(=O)=O [Pazopanib],IC50,"A549; ref 75, read-out: IC50 (converted)",4 to 6 µM
same,IC50,HT29 [1]; ref 77,> 5 µM
same,IC50,MCF7,6.29 µM
"Cc1noc(N)c1-c1nc2c(NCCO)ncnc2o1 [Compound 3h, 2-(5-Amino-3-methylisoxazol-4-yl)-7-N-(2-hydroxyethyl)aminooxazolo[5,4-d]pyrimidine]",CC50 ± SD,[2],lack cytotoxic activity
same,melting point,,213 to 214 °C (dec.)
same,CC50 ± SD,"[3]; MCF7, MTT, tested 1–500 µM",no cytotoxic activity
same,CC50,[4],146 ± 11.1 µM
same,CC50 ± SD,[5],Non-toxic
COc1cc2nccc(Oc3ccc(NC(=O)Nc4cc(C)on4)c(Cl)c3)c2cc1OC [Tivozanib],IC50,"A549; ref 64, read-out: IC50 (converted)",0.19 ± 0.04 µM
same,IC50,MCF7,0.25 ± 0.03 µM
"CCCCNc1ncnc2oc(-c3c(C)noc3N)nc12 [Compound 3d, 2-(5-Amino-3-methylisoxazol-4-yl)-7-N-butylaminooxazolo[5,4-d]pyrimidine]",SI (selectivity index),[2],0.820
same,CC50,[2],154 ± 13.4 µM
same,melting point,,239 to 240 °C (dec.)
same,SI (selectivity index),[3],0.944
same,CC50,"[3]; MCF7, MTT, tested 1–500 µM",134 ± 14 µM
same,SI (selectivity index),[6]; CC50 NHDF / CC50 A549,0.705
same,CC50,"[6]; Homo sapiens, A549, MTT, tested 1–500 µM",179 ± 14.9 µM
same,SI (selectivity index),[7]; CC50 NHDF / CC50 LoVo,0.558
same,CC50,"[7]; Homo sapiens, LoVo, MTT, tested 1–500 µM",226 ± 8.28 µM
same,CC50 ± SD,[8],no toxic activity; also recorded: Non-toxic
same,CC50,[9],126 ± 9.87 µM
"N.N.[Cl][Pt][Cl] [Cisplatin, reference compound]","scratch width after 24 h, mean",HT29 cells [10]; 10 μM,171562.8 μm^2
same,"scratch width after 24 h, mean",HT29 cells [10]; 25 μM,209621 μm^2
same,"scratch width after 24 h, mean",HT29 cells [10]; 50 μM,216006.4 μm^2
same,"scratch width after 24 h, mean",HT29 cells [10]; 100 μM,253653.8 μm^2
same,apoptosis mean,[11]; 1 μM,4.45
same,late apoptosis mean,[11]; 1 μM,26.25
same,necrosis mean,[11]; 1 μM,7.81
same,percent live (viable) cells,[11]; 1 μM,50.30
same,apoptosis mean,[11]; 2 μM,7.18
same,late apoptosis mean,[11]; 2 μM,24.44
same,necrosis mean,[11]; 2 μM,4.42
same,percent live (viable) cells,[11]; 2 μM,52.47
same,apoptosis mean,[11]; 5 μM,6.28
same,late apoptosis mean,[11]; 5 μM,29.59
same,necrosis mean,[11]; 5 μM,3.95
same,percent live (viable) cells,[11]; 5 μM,59.69
same,apoptosis mean,[11]; 10 μM,2.34
same,late apoptosis mean,[11]; 10 μM,16.55
same,necrosis mean,[11]; 10 μM,32.35
same,percent live (viable) cells,[11]; 10 μM,48.76
same,CC50,HT29 [12],16.9 ± 1.94 µM
COc1ccc(CCN(C)CCCC(C#N)(c2ccc(OC)c(OC)c2)C(C)C)cc1OC (stereo not shown) [verapamil],"intracellular fluorescence intensity of Rh-123, increase","HT29 cells [13]; HT29, treatment 48 h",1.77 fold
same,"intracellular fluorescence intensity of Rh-123, increase","HT29 cells [13]; HT29, treatment 72 h",1.9 fold
CNC(=O)c1cc(Oc2ccc(NC(=O)Nc3ccc(Cl)c(C(F)(F)F)c3)cc2)ccn1 [Sorafenib],IC50,LoVo,31 µM
same,IC50,"A549; ref 80, read-out: IC50 (converted)",5.62 ± 2.13 µM
same,IC50,HT29 [1]; ref 80,17.3 ± 3.8 µM
"Cc1noc(N)c1-c1nc2c(NCCCO)ncnc2o1 [Compound 3i, 2-(5-Amino-3-methylisoxazol-4-yl)-7-N-(3-hydroxypropyl)aminooxazolo[5,4-d]pyrimidine]",CC50 ± SD,[2],lack cytotoxic activity
same,melting point,,225 to 226 °C (dec.)
same,SI (selectivity index),[3],>>1
same,CC50,"[3]; MCF7, MTT, tested 1–500 µM",251 ± 22.1 µM
same,CC50,[4],171 ± 22.8 µM
same,CC50 ± SD,[5],Non-toxic
"CCNc1ncnc2oc(-c3c(C)noc3N)nc12 [Compound 3b, 2-(5-Amino-3-methylisoxazol-4-yl)-7-N-ethylaminooxazolo[5,4-d]pyrimidine]",SI (selectivity index),[2],>>1
same,CC50,[2],194 ± 15.4 µM
same,melting point,,253 to 254 °C (dec.)
same,SI (selectivity index),[3],>>1
same,CC50,"[3]; MCF7, MTT, tested 1–500 µM",193 ± 16.9 µM
same,CC50 ± SD,"[6]; A549, MTT, tested 1–500 µM",no activity
same,CC50,[4],235 ± 11.5 µM
same,CC50 ± SD,[5],Non-toxic
COc1cc2c(Nc3ccc(Br)cc3F)ncnc2cc1OCC1CCN(C)CC1 [Vandetanib],IC50,LoVo,3.5 ± 0.9 µM
same,IC50,"A549; ref 72, read-out: IC50 (converted)",2.7 ± 0.5 µM
same,IC50,HT29 [1]; ref 74,10 ± 0.4 µM
same,IC50,MCF7,12.2 ± 0.28 µM
